Data as given in patent publication US20240287043A1, “KETOAMIDE DERIVATIVE AND APPLICATION THEREOF” (GUANGDONG RAYNOVENT BIOTECH CO., LTD., priority 2021, published 2024).
Like-named read-outs stand apart in the source and are kept apart here.

Tests used:
[1] = Cytotoxicity assay in MRC5 cells without viral infection (CellTiter Glo); type: cell-based; conditions: human, no viral infection
Description: The calculation formulas were as below: […]

[2] = in vivo; conditions: male, C57BL/6J, mouse
[3] = test system: HCoV OC43; assay: In vitro anti-coronavirus activity using a cytopathic model (CPE, CellTiter Glo); conditions: Betacoronavirus 1, OC43, MRC5, 120 h
[4] = target: SARS-COV-2 Mpro (Severe acute respiratory syndrome coronavirus 2, UniProt P0DTD1); assay: In vitro inhibitory activity against Mpro protease of novel coronavirus (fluorescence substrate assay); type: biochemical; conditions: 25 nM Mpro protein, 25 μM substrate
[5] = male, C57BL/6J, mouse, in vivo

Structure (SMILES) | CC50 at 5 days [1] [µM] | AUC(0-t) ([2]; iv, 3 mg/kg) [µM·h] | AUC(0-t) ([2]; po, 10 mg/kg) [µM·h] | Tmax ([2]; po, 10 mg/kg) [h] | bioavailability ([2]; po, 10 mg/kg) [%] | half-life ([2]; po, 10 mg/kg) [h] | EC50 [3] [µM] | IC50 [4] [µM] | further results
O=C(NC1CCCC1)C(=O)[C@H](C[C@@H]1CCNC1=O)NC(=O)[C@@H]1[C@H]2CCC[C@H]2CN1C(=O)[C@@H](NC(=O)C(F)(F)F)C1CCCCC1 [Compound 1] | > 10 | 7.79 | 5.7 | 2 | 22 | 2.63 | 0.259 | – | Vd ([2]; iv, 3 mg/kg): 1.38 L/kg; clearance ([2]; iv, 3 mg/kg): 0.606 L/h/kg; concentration at 0.083 h ([2]; iv, 3 mg/kg): 6.77 µM; concentration at 0.25 h ([2]; iv, 3 mg/kg): 5.53 µM; concentration at 0.5 h ([2]; iv, 3 mg/kg): 3.93 µM; concentration at 1 h ([2]; iv, 3 mg/kg): 1.96 µM; concentration at 2 h ([2]; iv, 3 mg/kg): 0.867 µM; concentration at 4 h ([2]; iv, 3 mg/kg): 0.293 µM; concentration at 8 h ([2]; iv, 3 mg/kg): 0.0897 µM; concentration at 24 h ([2]; iv, 3 mg/kg): 0.00659 µM; half-life ([2]; iv, 3 mg/kg): 3.8 h; Cmax ([2]; po, 10 mg/kg): 1.29 µM; concentration at 0.25 h ([2]; po, 10 mg/kg): 0.533 µM; concentration at 0.5 h ([2]; po, 10 mg/kg): 0.706 µM; concentration at 1 h ([2]; po, 10 mg/kg): 0.952 µM; concentration at 2 h ([2]; po, 10 mg/kg): 1.29 µM; concentration at 4 h ([2]; po, 10 mg/kg): 0.661 µM; concentration at 6 h ([2]; po, 10 mg/kg): 0.291 µM; concentration at 8 h ([2]; po, 10 mg/kg): 0.187 µM; concentration at 24 h ([2]; po, 10 mg/kg): 0.00269 µM
O=C(NCc1ccccc1)C(=O)[C@H](C[C@@H]1CCNC1=O)NC(=O)[C@@H]1[C@H]2CCC[C@H]2CN1C(=O)[C@@H](NC(=O)C(F)(F)F)C1CCCCC1 [Compound 2] | > 10 | – | – | – | – | – | 0.368 | 0.011 | –
CC(C)(C)NC(=O)C(=O)[C@H](C[C@@H]1CCNC1=O)NC(=O)[C@@H]1[C@H]2CCC[C@H]2CN1C(=O)[C@@H](NC(=O)C(F)(F)F)C1CCCCC1 [Compound 3] | > 10 | 30.6 | 33 | 1.5 | 32 | 5.4 | 0.146 | 0.025 | Cl ([5]; iv, 3 mg/kg): 0.15 L/h/kg; T1/2 ([5]; iv, 3 mg/kg): 6.24 h; Vdss ([5]; iv, 3 mg/kg): 1.27 L/kg; Cmax ([5]; po, 10 mg/kg): 4.81 µM
CC(C)(C)NC(=O)C(=O)[C@H](C[C@@H]1CCNC1=O)NC(=O)[C@@H]1[C@H]2CCC[C@H]2CN1C(=O)[C@@H](NC(=O)C(F)(F)F)C1CCC1 [Compound 4] | > 10 | – | – | – | – | – | 0.823 | 0.104 | –
CC(C)(C)NC(=O)C(=O)[C@H](C[C@@H]1CCNC1=O)NC(=O)[C@@H]1[C@H]2CCC[C@H]2CN1C(=O)[C@@H](NC(=O)C(F)(F)F)C1CCCC1 [Compound 5] | > 10 | – | – | – | – | – | 0.368 | 0.05 | –
CC1([C@H](NC(=O)C(F)(F)F)C(=O)N2C[C@@H]3CCC[C@@H]3[C@H]2C(=O)N[C@@H](C[C@@H]2CCNC2=O)C(=O)C(=O)NC2CCCC2)CCCCC1 [Compound 6] | – | – | – | – | – | – | – | 0.012 | –
CC(C)(C)[C@H](NC(=O)C(F)(F)F)C(=O)N1C[C@H]2[C@@H]([C@H]1C(=O)N[C@H](C#N)CC1CCNC1=O)C2(C)C (stereo partly shown) [PF-07321332, reference compound] | – | 3.33 | 3.58 | 0.292 | 32.7 | 1.1 | – | – | Vd ([2]; iv, 3 mg/kg): 0.456 L/kg; clearance ([2]; iv, 3 mg/kg): 1.81 L/h/kg; half-life ([2]; iv, 3 mg/kg): 0.71 h; Cmax ([2]; po, 10 mg/kg): 2.71 µM
